Measured values reported in ChEMBL document CHEMBL1201862, “PubChem BioAssay data set” (2004).
Calls of active or inactive are those of the source.

Experiments:
[1] = target: Proto-oncogene tyrosine-protein kinase ROS (Homo sapiens, UniProt P08922); format: functional;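 further: ROS1 tested as one member of a kinome-wide kinase panel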
[2] = target: Testis-specific serine/threonine-protein kinase 1 (Homo sapiens, UniProt Q9BXA7); format: functional
[3] = target: Serine/threonine-protein kinase Chk1 (Homo sapiens, UniProt O14757); format: functional;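 further: measured as one member of a kinome-wide kinase profiling panel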
[4] = target: Protein-tyrosine kinase 6 (Homo sapiens, UniProt Q13882); format: functional
[5] = target: Fibroblast growth factor receptor 3 (Homo sapiens, UniProt P22607); format: functional
[6] = Luminescence Cell-Based Dose Confirmation HTS to Identify Activators of 5'UTR Stem-Loop Driven Alpha-Synuclein mRNA Translation in H4 Neuroglioblastoma Cells. [Related pubchem assays: 1829 (Project Summary), 1814 (Primary HTS)]; format: functional
[7] = test system: Streptococcus sp. 'group A'; assay: Streptococcus pyogenes SK(-)GAS viability under kanamycin – luminescence, BacTiterGlo, confirmation, counter-screen for streptokinase expression inhibitor project, dose response (AID 1900); format: functional, organism-based
H4 = assay: Luminescence Cell-Based Dose Response HTS to Identify Activators of 5'UTR Stem-Loop Driven Prion Protein mRNA Translation in H4 Neuroglioblastoma Cells. [Related pubchem assays: 1829 (Project Summary), 1814 (Primary HTS)]; format: functional; details: Homo sapiens
Streptokinase A = target: T1, Streptokinase A (Streptococcus pyogenes serotype M1, UniProt P10520); assay: viability-normalized secreted streptokinase activity reduction – plasminogen activation absorbance, OD405, dose response (AID 1914); format: functional, Streptococcus pyogenes M1 GAS;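 further: secreted streptokinase activity via plasminogen activation per viability signal from cell pellet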
T1 sequence (P10520 whole entry): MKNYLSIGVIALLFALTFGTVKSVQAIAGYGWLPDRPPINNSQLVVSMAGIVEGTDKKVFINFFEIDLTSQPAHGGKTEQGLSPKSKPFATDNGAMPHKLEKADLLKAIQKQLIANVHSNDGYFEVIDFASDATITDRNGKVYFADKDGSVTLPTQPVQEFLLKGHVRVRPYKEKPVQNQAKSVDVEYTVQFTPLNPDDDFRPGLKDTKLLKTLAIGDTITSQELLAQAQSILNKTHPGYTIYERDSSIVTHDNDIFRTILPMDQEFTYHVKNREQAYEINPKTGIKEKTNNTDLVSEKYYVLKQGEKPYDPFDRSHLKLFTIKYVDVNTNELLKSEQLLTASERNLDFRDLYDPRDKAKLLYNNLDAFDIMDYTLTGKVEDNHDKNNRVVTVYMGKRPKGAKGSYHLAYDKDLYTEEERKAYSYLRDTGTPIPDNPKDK

cells [8] = format: functional, cell-based
cells [9] = format: functional, cell-based; remark: listed apart in the source
[10] = target: Heat shock protein HSP 90-alpha (Homo sapiens, UniProt P07900); format: functional, organism-based
HEK293 = assay: HEK293T cell viability loss, resazurin readout – resazurin fluorescence, cytotoxicity control for NF-kB activator project, SAR follow-up (AID 493251); format: functional, cell-based
Jurkat = assay: SAR Analysis of small molecule inhibitors of T-cell specific antigen receptor-induced NF-kB activation in a Jurkat cell line using a luminescence assay - Set 2. [Related pubchem assays (depositor defined):AID435003, AID435012, AID465]; format: functional, cell-based; details: Homo sapiens
[11] = target: T2, Histone-lysine N-methyltransferase NSD2 (Homo sapiens, UniProt O96028); format: biochemical
T2 sequence (O96028 whole entry): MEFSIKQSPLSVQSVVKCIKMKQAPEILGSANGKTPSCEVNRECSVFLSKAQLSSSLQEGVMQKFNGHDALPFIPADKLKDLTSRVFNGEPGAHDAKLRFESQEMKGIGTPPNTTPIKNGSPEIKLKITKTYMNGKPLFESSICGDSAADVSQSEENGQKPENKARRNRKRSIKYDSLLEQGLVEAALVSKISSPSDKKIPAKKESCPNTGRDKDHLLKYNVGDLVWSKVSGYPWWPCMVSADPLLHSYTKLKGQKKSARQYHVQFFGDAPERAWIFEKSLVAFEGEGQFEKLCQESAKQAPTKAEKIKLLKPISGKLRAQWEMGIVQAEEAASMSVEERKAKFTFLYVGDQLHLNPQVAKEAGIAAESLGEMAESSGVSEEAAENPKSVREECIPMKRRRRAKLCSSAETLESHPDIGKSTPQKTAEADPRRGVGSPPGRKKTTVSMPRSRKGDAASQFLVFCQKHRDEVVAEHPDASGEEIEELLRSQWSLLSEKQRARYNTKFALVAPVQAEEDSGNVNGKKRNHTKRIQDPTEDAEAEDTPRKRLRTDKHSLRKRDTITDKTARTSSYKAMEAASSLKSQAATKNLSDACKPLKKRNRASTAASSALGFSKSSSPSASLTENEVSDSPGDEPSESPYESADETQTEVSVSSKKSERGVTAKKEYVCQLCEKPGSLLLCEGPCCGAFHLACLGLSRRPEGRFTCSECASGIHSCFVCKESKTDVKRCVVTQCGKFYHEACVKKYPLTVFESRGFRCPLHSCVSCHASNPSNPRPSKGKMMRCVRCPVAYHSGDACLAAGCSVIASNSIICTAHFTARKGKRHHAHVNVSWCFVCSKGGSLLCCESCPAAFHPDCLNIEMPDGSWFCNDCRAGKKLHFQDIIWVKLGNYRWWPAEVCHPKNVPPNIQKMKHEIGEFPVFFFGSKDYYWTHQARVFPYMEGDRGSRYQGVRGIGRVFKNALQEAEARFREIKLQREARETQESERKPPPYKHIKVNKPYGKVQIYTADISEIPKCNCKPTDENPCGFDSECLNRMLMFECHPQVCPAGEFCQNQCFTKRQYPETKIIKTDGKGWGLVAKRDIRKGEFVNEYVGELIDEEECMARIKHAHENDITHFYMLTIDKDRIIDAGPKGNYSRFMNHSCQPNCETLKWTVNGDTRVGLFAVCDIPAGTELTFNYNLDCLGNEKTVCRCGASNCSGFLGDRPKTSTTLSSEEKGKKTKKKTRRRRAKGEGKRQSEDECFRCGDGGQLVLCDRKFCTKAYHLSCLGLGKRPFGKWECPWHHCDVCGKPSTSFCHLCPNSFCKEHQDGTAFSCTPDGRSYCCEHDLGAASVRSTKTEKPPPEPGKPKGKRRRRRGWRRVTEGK

Cytochrome P450 2C9 = Cytochrome P450 2C9 (Homo sapiens, UniProt P11712)
Sequence of Cytochrome P450 2C9 (P11712 whole entry): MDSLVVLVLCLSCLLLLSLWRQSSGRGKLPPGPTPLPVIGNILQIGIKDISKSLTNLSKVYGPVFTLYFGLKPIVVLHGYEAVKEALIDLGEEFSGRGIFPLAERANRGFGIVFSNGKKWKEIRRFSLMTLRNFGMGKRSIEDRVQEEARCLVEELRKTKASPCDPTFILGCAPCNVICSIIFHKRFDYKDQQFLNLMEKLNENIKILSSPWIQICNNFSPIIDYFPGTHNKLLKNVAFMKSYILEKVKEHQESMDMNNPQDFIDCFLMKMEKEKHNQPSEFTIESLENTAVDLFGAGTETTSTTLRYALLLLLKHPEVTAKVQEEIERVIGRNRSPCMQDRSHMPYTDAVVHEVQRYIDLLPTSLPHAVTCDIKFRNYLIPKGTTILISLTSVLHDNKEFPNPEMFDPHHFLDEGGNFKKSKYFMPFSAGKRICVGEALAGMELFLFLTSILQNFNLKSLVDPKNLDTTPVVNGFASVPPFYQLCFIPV

Sequence of Proto-oncogene tyrosine-protein kinase ROS (P08922 whole entry): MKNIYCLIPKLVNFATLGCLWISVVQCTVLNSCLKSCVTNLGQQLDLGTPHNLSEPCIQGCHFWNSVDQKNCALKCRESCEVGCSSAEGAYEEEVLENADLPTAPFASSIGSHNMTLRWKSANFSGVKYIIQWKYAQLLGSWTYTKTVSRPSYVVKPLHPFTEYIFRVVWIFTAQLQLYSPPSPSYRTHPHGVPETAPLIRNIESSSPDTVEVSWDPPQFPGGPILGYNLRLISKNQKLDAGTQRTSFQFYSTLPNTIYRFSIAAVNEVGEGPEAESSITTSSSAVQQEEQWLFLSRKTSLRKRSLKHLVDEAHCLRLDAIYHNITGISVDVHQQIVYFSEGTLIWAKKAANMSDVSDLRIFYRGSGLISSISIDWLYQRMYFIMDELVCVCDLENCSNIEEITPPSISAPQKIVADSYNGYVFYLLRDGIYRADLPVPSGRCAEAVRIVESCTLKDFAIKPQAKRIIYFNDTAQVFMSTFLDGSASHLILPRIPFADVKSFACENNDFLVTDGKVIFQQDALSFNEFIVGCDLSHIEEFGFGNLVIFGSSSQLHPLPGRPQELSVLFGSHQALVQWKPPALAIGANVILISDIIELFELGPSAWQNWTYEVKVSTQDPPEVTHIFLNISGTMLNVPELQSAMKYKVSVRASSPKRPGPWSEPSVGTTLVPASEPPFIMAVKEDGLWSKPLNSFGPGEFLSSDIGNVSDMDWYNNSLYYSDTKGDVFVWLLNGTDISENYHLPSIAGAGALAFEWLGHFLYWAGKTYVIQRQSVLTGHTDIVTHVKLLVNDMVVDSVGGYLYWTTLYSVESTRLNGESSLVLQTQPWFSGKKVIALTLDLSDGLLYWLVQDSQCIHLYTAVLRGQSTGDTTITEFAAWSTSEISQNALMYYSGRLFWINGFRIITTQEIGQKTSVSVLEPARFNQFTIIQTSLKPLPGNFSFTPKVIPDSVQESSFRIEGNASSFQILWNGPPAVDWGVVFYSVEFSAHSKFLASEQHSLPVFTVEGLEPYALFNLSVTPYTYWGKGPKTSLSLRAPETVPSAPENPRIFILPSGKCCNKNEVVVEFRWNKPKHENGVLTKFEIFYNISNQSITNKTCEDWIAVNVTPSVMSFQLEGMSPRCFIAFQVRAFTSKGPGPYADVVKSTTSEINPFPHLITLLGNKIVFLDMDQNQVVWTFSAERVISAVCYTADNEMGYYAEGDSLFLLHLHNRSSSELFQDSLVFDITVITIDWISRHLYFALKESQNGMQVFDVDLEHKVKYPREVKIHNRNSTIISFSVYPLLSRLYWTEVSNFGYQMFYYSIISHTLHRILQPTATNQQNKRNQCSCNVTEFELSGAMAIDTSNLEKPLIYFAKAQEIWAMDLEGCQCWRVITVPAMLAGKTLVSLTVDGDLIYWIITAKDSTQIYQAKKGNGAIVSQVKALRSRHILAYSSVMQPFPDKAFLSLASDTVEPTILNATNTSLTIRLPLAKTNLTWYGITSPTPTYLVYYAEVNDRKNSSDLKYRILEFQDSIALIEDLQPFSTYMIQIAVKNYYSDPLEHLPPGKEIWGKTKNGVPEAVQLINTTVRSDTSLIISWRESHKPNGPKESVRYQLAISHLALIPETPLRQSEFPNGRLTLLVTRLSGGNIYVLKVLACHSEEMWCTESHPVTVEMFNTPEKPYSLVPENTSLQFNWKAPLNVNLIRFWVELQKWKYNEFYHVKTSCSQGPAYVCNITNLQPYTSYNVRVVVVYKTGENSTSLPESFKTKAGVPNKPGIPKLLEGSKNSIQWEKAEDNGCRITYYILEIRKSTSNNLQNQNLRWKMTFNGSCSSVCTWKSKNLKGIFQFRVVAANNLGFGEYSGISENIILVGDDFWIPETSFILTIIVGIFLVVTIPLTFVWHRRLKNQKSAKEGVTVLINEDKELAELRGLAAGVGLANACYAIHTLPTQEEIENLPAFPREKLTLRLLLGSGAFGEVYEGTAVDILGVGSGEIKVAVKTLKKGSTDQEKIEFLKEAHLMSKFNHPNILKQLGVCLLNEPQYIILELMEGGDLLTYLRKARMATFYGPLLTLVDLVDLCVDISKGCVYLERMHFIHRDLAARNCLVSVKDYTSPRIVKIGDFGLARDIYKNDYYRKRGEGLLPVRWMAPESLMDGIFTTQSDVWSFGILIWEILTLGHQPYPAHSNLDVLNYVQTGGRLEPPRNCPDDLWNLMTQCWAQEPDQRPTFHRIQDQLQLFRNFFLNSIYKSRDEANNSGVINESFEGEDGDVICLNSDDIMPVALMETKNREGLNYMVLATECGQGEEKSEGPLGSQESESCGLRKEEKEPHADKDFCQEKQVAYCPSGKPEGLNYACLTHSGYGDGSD
Sequence of Protein-tyrosine kinase 6 (Q13882 whole entry): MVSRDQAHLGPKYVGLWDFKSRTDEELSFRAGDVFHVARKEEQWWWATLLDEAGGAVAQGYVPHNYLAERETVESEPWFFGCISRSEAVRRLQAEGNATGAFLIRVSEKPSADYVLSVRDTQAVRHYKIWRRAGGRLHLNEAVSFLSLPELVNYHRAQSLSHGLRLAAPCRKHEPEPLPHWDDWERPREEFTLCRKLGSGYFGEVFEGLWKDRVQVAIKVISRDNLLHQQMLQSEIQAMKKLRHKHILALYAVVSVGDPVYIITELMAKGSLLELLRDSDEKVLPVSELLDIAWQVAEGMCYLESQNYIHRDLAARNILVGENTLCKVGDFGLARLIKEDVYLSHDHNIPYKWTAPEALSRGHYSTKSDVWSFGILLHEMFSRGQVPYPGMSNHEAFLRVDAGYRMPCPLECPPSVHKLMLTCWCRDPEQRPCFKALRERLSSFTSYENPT
Sequence of Fibroblast growth factor receptor 3 (P22607 whole entry): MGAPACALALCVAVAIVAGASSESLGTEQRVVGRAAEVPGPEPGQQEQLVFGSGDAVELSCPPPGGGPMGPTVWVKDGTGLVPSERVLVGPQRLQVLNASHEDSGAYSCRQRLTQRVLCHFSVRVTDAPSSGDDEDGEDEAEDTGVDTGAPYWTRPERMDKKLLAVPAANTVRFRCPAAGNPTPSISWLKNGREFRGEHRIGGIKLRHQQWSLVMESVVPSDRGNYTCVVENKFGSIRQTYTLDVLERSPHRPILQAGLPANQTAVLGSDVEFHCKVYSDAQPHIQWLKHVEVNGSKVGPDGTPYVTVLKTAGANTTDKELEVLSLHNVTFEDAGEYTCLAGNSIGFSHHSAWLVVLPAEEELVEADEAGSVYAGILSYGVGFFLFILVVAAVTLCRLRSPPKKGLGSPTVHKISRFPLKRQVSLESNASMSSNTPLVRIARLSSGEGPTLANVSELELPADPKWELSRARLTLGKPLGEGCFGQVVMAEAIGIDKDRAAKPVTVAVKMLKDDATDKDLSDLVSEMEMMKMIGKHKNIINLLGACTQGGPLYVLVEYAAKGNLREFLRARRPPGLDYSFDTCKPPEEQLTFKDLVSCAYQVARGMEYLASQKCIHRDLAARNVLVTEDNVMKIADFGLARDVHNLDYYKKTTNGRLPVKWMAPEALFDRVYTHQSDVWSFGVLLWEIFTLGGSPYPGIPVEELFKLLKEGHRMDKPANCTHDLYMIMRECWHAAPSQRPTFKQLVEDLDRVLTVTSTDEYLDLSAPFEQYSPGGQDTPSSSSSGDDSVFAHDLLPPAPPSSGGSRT
Sequence of Serine/threonine-protein kinase Chk1 (O14757 whole entry): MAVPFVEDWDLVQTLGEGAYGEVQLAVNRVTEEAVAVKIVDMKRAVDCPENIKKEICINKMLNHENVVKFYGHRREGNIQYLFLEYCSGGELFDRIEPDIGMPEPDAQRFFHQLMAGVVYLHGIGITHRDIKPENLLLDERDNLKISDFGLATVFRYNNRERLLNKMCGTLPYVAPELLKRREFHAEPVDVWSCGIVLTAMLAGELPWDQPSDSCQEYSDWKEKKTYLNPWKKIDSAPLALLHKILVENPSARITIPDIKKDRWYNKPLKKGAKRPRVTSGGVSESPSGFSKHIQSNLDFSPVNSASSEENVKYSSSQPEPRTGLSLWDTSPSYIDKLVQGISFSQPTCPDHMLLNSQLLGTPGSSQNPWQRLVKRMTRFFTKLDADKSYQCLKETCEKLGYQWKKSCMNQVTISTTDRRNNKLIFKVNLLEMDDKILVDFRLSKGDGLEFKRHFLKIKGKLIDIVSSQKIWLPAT
Sequence of Testis-specific serine/threonine-protein kinase 1 (Q9BXA7 whole entry): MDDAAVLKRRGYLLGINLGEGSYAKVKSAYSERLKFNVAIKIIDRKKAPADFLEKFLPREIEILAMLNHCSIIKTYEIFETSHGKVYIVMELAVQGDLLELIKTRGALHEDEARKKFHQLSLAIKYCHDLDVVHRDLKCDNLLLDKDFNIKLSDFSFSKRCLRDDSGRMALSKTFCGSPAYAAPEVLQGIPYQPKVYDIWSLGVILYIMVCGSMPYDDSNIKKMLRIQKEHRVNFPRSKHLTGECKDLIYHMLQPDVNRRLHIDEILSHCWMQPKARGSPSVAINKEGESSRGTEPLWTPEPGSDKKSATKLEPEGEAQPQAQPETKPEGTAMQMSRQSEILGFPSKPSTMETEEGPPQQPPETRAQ

SMILES	EC50 [6]	EC50 [7]	EC50 (H4)	EC50 (Streptokinase A)	EC50 (cells [8])	EC50 (cells [9])	AC50 [10]	IC50 (HEK293; Homo sapiens, HEK293)	IC50 (Jurkat)	AC50 [11]	further results
Cc1cccc(NC(=O)Nc2ccc3c(c2)CCc2sc4ncnc(N)c4c2-3)c1											Ki [1]: 2 µM (active); Ki [2]: > 1.58 µM (inactive); Ki [3]: > 7.94 µM (inactive); Ki [4]: > 2.51 µM (inactive); Ki [5]: > 2 µM (inactive)
Cc1ccc(-n2sc3ccccc3c2=O)cc1	> 120 µM (not active)	1.02 µM (active)	88.2 µM (active)	> 150 µM (not active)							
CCC(=O)NC(c1ccc(C)cc1)c1ccc2cccnc2c1O (configuration not stated)					4.3 µM (active)	> 350 µM (not active)	3.35 µM (active)	12.9 µM (active)	3.26 µM (active)		
N/C(=N\N=C/c1ccc(-c2ccc(O)c(C(=O)O)c2)o1)N[N+](=O)[O-]										7.57 µM (active)	AC50 (Cytochrome P450 2C9): 7.94 µM (inconclusive)
CC(=O)N(/N=C1\Sc2ccccc2C1=O)c1ccccc1C	2.51 µM (active)		33.4 µM (active)							0.548 µM (active)	
CCCC(=O)NC(c1ccc(Cl)cc1)c1ccc2cccnc2c1O (configuration not stated)		2.17 µM (active)		> 150 µM (not active)	5.77 µM (active)	> 350 µM (not active)	4.04 µM (active)	8.63 µM (active)	2.84 µM (active)		IC50 (HEK293; hek293): 9.55 µM (active)
